For series [1], the target named is human soluble guanylate cyclase alpha 1 and beta 1 subunits (sGC) (Homo sapiens (Human), UniProt Q02108+Q02153). As to the kind of experiment: sGC cellular activator assay (cGMP, HTRF), in the presence and absence of 50% human serum. Format: cell-based. Particulars: CHO cells stably expressing human sGC alpha 1/beta 1, preincubated with 40 microM ODQ; cGMP by HTRF; Table 2 does not state whether with or without 50% human serum. A digest of the protocol:
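Heme-oxidized conditions: ODQ (40 microM, 1 h) pretreatment of CHO cells stably expressing human α1/β1 sGC, in buffer containing 0.1% BSA and IBMX.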
Background: In TR-FRET formats the signal depends on donor and acceptor labels being close together.

A short description of series [2]: physchem. Particulars: kinetic from dmso stock.
A short description of series [3]: Human liver microsome (HLM) metabolic stability assay. Format: in vitro ADME. Conditions: human liver microsomes. A digest of the protocol: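 Compound at 1 uM incubated with human liver microsomes at 37° C. for 60 min after NADPH addition. Aliquots quenched in cold acetonitrile at 0, 5, 15, 30 and 60 min and analysed by LC/MS/MS. t1/2 from ln(% remaining) vs time slope; CLint, CLh and % Qh derived from it (n=1).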

The mark [4] stands for this setting: pH 2.2, aqueous buffer, Solubility (pH 2.2).
[5] abbreviates: pH 4.5, aqueous buffer, Solubility (pH 4.5).
The mark [6] stands for this setting: pH 6.8, aqueous buffer, Solubility (pH 6.8).

Values after ≈ are worked out from the molar mass of the structure shown.

Chain of human soluble guanylate cyclase alpha 1 and beta 1 subunits (sGC) (Q02108 whole entry partner): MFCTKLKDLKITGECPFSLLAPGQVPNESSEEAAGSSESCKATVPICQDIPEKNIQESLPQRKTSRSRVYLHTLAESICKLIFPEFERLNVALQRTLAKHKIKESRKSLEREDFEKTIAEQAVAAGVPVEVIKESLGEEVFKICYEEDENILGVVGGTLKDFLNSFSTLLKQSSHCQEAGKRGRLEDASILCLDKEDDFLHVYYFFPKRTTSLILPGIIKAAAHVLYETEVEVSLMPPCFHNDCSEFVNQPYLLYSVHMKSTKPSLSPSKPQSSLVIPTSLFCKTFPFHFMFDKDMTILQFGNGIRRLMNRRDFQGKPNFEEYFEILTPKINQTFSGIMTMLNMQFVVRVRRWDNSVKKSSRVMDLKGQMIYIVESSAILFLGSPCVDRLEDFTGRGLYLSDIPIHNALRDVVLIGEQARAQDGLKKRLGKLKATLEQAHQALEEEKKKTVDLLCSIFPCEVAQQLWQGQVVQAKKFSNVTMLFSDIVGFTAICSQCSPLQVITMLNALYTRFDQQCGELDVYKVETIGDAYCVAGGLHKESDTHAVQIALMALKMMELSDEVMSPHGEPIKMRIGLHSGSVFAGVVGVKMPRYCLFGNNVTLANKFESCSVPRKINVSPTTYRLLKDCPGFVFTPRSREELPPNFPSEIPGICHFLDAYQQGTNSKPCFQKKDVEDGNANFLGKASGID
Chain of human soluble guanylate cyclase alpha 1 and beta 1 subunits (sGC) (Q02153 whole entry): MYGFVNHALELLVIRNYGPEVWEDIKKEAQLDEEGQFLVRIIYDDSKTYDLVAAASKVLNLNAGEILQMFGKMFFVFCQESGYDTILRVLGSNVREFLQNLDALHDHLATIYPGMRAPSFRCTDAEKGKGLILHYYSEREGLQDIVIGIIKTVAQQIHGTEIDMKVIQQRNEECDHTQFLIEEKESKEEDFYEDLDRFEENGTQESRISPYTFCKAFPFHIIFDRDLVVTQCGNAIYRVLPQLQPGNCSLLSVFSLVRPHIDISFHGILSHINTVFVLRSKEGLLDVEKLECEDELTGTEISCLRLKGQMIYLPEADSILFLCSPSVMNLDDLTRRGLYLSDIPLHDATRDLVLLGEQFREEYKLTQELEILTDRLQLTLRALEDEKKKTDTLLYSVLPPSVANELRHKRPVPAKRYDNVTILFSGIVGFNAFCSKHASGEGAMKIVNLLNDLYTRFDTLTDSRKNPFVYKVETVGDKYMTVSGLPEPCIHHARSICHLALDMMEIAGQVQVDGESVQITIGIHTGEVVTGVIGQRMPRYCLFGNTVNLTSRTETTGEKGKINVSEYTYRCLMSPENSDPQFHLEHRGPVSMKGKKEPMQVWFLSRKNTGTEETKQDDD

By EC50 is commonly meant the midpoint of the concentration-response curve. As usually defined, the solubility is how much of the substance goes into solution per volume. `COC[C@H]1N(c2nc(-c3cc(C)ccc3OCc3ccc4c(c3C)CCN(C3CCOCC3)C4)cs2)C[C@@H]2C[C@@]21C(=O)O` [Compound 164]: the midpoint of the response in series [1], the EC50, lay at 108 nM. Moreover, the solubility at 24 h worked out at 120 µg/mL (≈ 199 µM) in series [2] (setting [4]), 75 µg/mL (≈ 124 µM) in series [2] (setting [5]) and 59 µg/mL (≈ 97.7 µM) in series [2] (setting [6]). For the same compound, the “Metabolic stability (Qh %), % hepatic blood flow” value (“Metabolic stability (Qh %)” for short) in series [3] is less than 24%.
In the same order, the values of `COC[C@H]1N(c2cccc(-c3cc(C)ccc3OCc3cc(C)c4c(c3)CCN(C3CCOCC3)C4)n2)C[C@@H]2C[C@@]21C(=O)O` [Compound 219] are 263 nM, 146 µg/mL (≈ 245 µM), 142 µg/mL (≈ 238 µM), 137 µg/mL (≈ 229 µM) and less than 24%.
In series [1], `Cc1ccc(OCc2cc(C)c3c(c2C)CCN(C2CCCOC2)C3)c(-c2csc(N3CC[C@@]4(C(=O)O)C[C@H]4C3)n2)c1` (some centres unmarked) [Compound 128] returned an EC50 of 9 nM. Besides, the solubility at 24 h is 120 µg/mL (≈ 204 µM) in series [2] (setting [4]), 6.3 µg/mL (≈ 10.7 µM) in series [2] (setting [5]) and 0.3 µg/mL (≈ 0.51 µM) in series [2] (setting [6]). Also, in series [3], the “Metabolic stability (Qh %)” value is listed as less than 24%.
In the same order, the values of `COC[C@H]1N(c2cccc(-c3cccc(C)c3OCc3ccc4c(n3)CCN(C3CCOCC3)C4)n2)C[C@@H]2C[C@@]21C(=O)O` [Compound 318] are 739 nM, 151 µg/mL (≈ 258 µM), 123 µg/mL (≈ 211 µM), 73.7 µg/mL (≈ 126 µM) and less than 24%.
In series [1], `Cc1ccc(OCc2cc(C)c3c(c2C)CCN(CC2COCCO2)C3)c(-c2csc(N3CC[C@@]4(C(=O)O)C[C@H]4C3)n2)c1` (some centres unmarked) [Compound 127] displayed an EC50 of 3 nM. Besides, the solubility at 24 h was determined as 130 µg/mL (≈ 215 µM) in series [2] (setting [4]), 17 µg/mL (≈ 28.2 µM) in series [2] (setting [5]) and 0.77 µg/mL (≈ 1.28 µM) in series [2] (setting [6]). In series [3], the “Metabolic stability (Qh %)” value is less than 24%.
In the same order, the values of `COc1cc(COc2c(C)cccc2-c2cccc(N3CC[C@H](C(=O)O)[C@H](OC)C3)n2)cc2c1CN(C1CCOCC1)CC2` [Compound 249] are 13 nM, 129 µg/mL (≈ 214 µM), 127 µg/mL (≈ 211 µM), 120 µg/mL (≈ 199 µM) and less than 24%.
The compound `Cc1ccc(OCc2ccc3c(c2C)CCN(C2CCOC2)C3)c(-c2csc(N3CC[C@@]4(C(=O)O)C[C@H]4C3)n2)c1` (some centres unmarked) [Compound 119] gave an EC50 in series [1] of 3 nM. The solubility at 24 h came to 120 µg/mL (≈ 214 µM) in series [2] (setting [4]), 18 µg/mL (≈ 32.2 µM) in series [2] (setting [5]) and 1.3 µg/mL (≈ 2.32 µM) in series [2] (setting [6]). In addition, the “Metabolic stability (Qh %)” value in series [3] is given as less than 24%.
In the same order, the values of `Cc1cc(COc2c(C)cccc2-c2csc(N3CC[C@@]4(C(=O)O)C[C@H]4C3)n2)cc2c1CN(C1CCCOC1)CC2` (some centres unmarked) [Compound 94] are 3 nM, 120 µg/mL (≈ 209 µM), 55 µg/mL (≈ 95.9 µM), 19 µg/mL (≈ 33.1 µM) and 42%.
In the same order, the values of `Cc1ccc(OCc2ccc3c(c2)CCN(C2CCCOC2)C3)c(-c2csc(N3CC[C@@]4(C(=O)O)C[C@H]4C3)n2)c1` (some centres unmarked) [Compound 113] are 5 nM, 130 µg/mL (≈ 232 µM), 36 µg/mL (≈ 64.3 µM), 2.7 µg/mL (≈ 4.82 µM) and less than 24%.
For the compound `COC[C@H]1N(c2cccc(-c3cccc(C)c3OCc3cc4c(c(OC)c3)CN(C3CCOCC3)CC4)n2)C[C@@H]2C[C@@]21C(=O)O` [Compound 57], in series [1], the EC50 amounted to 21 nM. The solubility at 24 h was determined as 120 µg/mL (≈ 196 µM) in series [2] (setting [4]), 99 µg/mL (≈ 161 µM) in series [2] (setting [5]) and 78 µg/mL (≈ 127 µM) in series [2] (setting [6]). In addition, the “Metabolic stability (Qh %)” value in series [3] is listed as less than 24%.
As for `CCc1cc(COc2c(C)cccc2-c2csc(N3CC[C@@H](C(=O)O)[C@@H](OC)C3)n2)cc2c1CN(C1CCOCC1)CC2` [Compound 170], it took 5 nM to reach a half-maximal effect in series [1] (EC50). Further, the solubility at 24 h in series [2] (setting [4]) worked out at 130 µg/mL (≈ 215 µM); in series [2] (setting [5]), 90 µg/mL (≈ 149 µM); in series [2] (setting [6]), 79 µg/mL (≈ 130 µM). Moreover, in series [3], the “Metabolic stability (Qh %)” value is given as less than 24%.
In the same order, the values of `CO[C@@H]1CN(c2nc(-c3cccc(C)c3OCc3cc(F)c4c(c3)CCN(C3CCOCC3)CC4)cs2)CC[C@@H]1C(=O)O` [Compound 244] are 4 nM, 118 µg/mL (≈ 193 µM), 109 µg/mL (≈ 178 µM), 107 µg/mL (≈ 176 µM) and less than 24%.
In the same order, the values of `CO[C@H]1CN(c2nc(-c3cccc(C)c3OCc3cc(C)c4c(c3)CCN(CC3COCCO3)C4)cs2)CC[C@H]1C(=O)O` (some centres unmarked) [Compound 168] are 53 nM, 130 µg/mL (≈ 214 µM), 87 µg/mL (≈ 143 µM), 81 µg/mL (≈ 133 µM) and less than 24%.
In turn, `CCO[C@@H]1CN(c2cccc(-c3cccc(Cl)c3OCc3cc4c(c(OC)c3)CN(C3CCOCC3)CC4)n2)CC[C@@H]1C(=O)O` [Compound 260] showed an EC50 in series [1] of 56 nM. For the same compound, the results for the solubility at 24 h in series [2] (setting [4]), in series [2] (setting [5]) and in series [2] (setting [6]) were 148 µg/mL (≈ 233 µM), 83.9 µg/mL (≈ 132 µM) and 58.3 µg/mL (≈ 91.6 µM), respectively. In series [3], the “Metabolic stability (Qh %)” value turned out to be 40%.
In the same order, the values of `Cc1cccc(-c2ccnc(N3C[C@@H]4C[C@]4(C(=O)O)C3)n2)c1OCc1ccc2c(c1C)CCN(C1CCOCC1)C2` [Compound 189] are 43 nM, 110 µg/mL (≈ 198 µM), 66 µg/mL (≈ 119 µM), 66 µg/mL (≈ 119 µM) and less than 24%.
Take `CO[C@H]1CN(c2nc(-c3cccc(C)c3OCc3ccc4c(c3C)CCN(C3COC3)CC4)cs2)CC[C@H]1C(=O)O` [Compound 287]: a half-maximal effect in series [1] (EC50) was put at 13 nM. Also, the solubility at 24 h came to 120 µg/mL (≈ 207 µM) in series [2] (setting [4]), 72.7 µg/mL (≈ 126 µM) in series [2] (setting [5]) and 71.7 µg/mL (≈ 124 µM) in series [2] (setting [6]). For the same compound, in series [3], the “Metabolic stability (Qh %)” value is less than 24%.
In the same order, the values of `CO[C@H]1CN(c2cccc(-c3cc(C)ccc3OCc3ccc4c(c3)CCN(C3CCOCC3)C4)n2)CC[C@H]1C(=O)O` [Compound 70] are 120 nM, 130 µg/mL (≈ 227 µM), 120 µg/mL (≈ 210 µM), 83 µg/mL (≈ 145 µM) and less than 24%.
In the same order, the values of `CO[C@@H]1CN(c2cccc(-c3cccc(C)c3OCc3ccc4c(c3C)CCN(C3COC3)CC4)n2)CC[C@@H]1C(=O)O` [Compound 196] are 3 nM, 117 µg/mL (≈ 205 µM), 114 µg/mL (≈ 199 µM), 107 µg/mL (≈ 187 µM) and 24%.
In the same order, the values of `Cc1ccc(OCc2ccc3c(c2C)CCN(C2CCOCC2)CC3)c(-c2cccc(N3C[C@@H]4C[C@]4(C(=O)O)C3)n2)c1` [Compound 41] are 16 nM, 100 µg/mL (≈ 176 µM), 84 µg/mL (≈ 148 µM), 45 µg/mL (≈ 79.3 µM) and less than 24%.
